Earlier results as cited in patent US10603401B2, “Dressing system” (Edixomed Limited, priority 2015, dated 2020).

Conditions: healthy 70 kg-adult

Row | SMILES | Generally accepted safe dosage for topical anaesthesia
1 | CCN(CC)CC(=O)Nc1c(C)cccc1C [lidocaine] | 750 mg
2 | CCCCNc1ccc(C(=O)OCCN(C)C)cc1 [tetracaine] | 50 mg
3 | COC(=O)[C@H]1[C@@H](OC(=O)c2ccccc2)C[C@@H]2CC[C@H]1N2C [cocaine] | 200 mg
